From paper PMC10040380 (Cell Reports Medicine, 2023) come the findings set out here.

In this experiment the target is T1, KCC2 (Homo sapiens, UniProt Q9H2X9).
T1 sequence (Q9H2X9 1-1116 isoform Q9H2X9-2): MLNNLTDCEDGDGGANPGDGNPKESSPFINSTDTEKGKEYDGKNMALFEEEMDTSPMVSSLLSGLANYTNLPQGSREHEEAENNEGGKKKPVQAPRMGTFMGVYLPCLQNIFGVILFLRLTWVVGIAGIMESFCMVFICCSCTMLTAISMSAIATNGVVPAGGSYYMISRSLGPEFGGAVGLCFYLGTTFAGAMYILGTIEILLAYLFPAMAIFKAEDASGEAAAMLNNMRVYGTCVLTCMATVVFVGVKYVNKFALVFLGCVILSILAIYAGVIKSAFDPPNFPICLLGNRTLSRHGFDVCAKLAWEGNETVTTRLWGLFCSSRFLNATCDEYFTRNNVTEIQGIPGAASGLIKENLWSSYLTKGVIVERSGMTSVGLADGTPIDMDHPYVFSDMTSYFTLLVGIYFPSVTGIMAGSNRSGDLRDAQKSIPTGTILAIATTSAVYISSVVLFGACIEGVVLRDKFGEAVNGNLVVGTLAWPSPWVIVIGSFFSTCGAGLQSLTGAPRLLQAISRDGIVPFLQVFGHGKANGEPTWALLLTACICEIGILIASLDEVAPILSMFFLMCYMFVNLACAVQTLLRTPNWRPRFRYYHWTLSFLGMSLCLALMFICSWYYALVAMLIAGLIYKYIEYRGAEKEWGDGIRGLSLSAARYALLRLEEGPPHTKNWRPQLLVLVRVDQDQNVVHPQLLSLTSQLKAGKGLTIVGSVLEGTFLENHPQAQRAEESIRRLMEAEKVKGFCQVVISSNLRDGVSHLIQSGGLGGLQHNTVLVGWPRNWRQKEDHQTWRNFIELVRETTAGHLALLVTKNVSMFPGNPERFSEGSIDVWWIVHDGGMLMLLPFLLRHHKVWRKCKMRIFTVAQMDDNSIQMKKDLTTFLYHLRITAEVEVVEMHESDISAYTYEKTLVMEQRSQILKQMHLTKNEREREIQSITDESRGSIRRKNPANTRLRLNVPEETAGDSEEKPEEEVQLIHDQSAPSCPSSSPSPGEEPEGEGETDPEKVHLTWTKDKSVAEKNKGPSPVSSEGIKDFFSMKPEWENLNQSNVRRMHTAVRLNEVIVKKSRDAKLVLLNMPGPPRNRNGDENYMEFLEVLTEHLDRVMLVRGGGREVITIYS
The experiment in a line: Tl influx FLIPR assay in HEK-293 cells expressing KCC2. The format is cell-based.

OV350 [compound 350] displayed an EC50 of 261 ± 22.2 nM.

As usually defined, the EC50 is the concentration giving half of the maximal effect.
